The source of these data is patent publication US6710066B2, “Photochemotherapeutic method using 5-aminolevulinic acid and other precursors of endogenous porphyrins” (priority 1989, dated 2004).

One experiment has as its system P. yoelii. From the text: (A) Infectivity Assay: Mice infected with P. yoelii were given a standard dose of ALA by intraperitoneal injection. Peripheral blood and/or spleen cells were collected after a standard interval, exposed to standard doses of photoactivating light (including a no-light control) and then injected into normal mice.
Four hours later, its spleen cells were suspended in isotonic saline. Half of the spleen cell suspension was placed on ice and ekxposed to photoactivating light (waveband 600-700 nm, intensity […], total dose 540 J/cm^2), while the other half was kept on ice in the dark. Balb/c mice were injected intraperitoneally with either the light treated or untreated sample. Survival of the mice was followed for 90 days. FIG. 1 illustrates the duration of survival of individual mice following the injection of spleen cells infected with P. yoelii.

A further experiment concerns C. albicans lesions. Kind of experiment: PpIX fluorescence of intradermal C. albicans lesions in hairless mice given ALA. As to conditions: 240 mg/kg ALA intraperitoneal, 3 hours. Type of experiment: in vivo, mouse. How it is done: The procedure of Giger et al. Infection and Immunity 19 (2) 499-509 (February 1978) was used with the following modifications. A clinical specimen of C. albicans was replated in blood agar so it was actively growing and left at room temperature for 72 hours. The sample was suspended in TSB to McFarland 0.5 turbidity after which a 1.0 ml sample was inoculated into an aerobic culture bottle and left shaking for 24 hours on a 37° C. rotor shaker. A 10 ml sample was withdrawn and centrifuged at […] for 10 minutes to separate the cells from the media. The supernate was discarded and the pellet resuspended in 10 ml of TSB. Serial dilusions (10^−1 to 10^−5) were made in and replicated twice on agar and left to incubate for two days at 37° C. […]
Three hours prior to their sacrifice, the mice were given 240 mg/kg ALA (10 mg/ml) by intraperitoneal injection, with the exception of mouse #3 which was used as a control. Fluorescence emission spectra on the live mice were taken every 15 minutes (mouse #1 readings every 20 minutes) for 3 hours after injection on each lesion, and at various control areas of the mice—neck skin flap and lateral side opposite the lesion on mouse 5. […] The frozen lesions were sectioned and slides were prepared for spectral analysis or fluorescence microscopy, H and E staining for histology, and Grocott silver stains for fungi identification.

Setting [1] is: ALA in vivo, then photoactivating light.

Take `NCC(=O)CCC(=O)O` [ALA, 5-Amino-4-oxopentanoic acid]: in the experiment with P. yoelii (setting [1]), the “ability of plasmodia to accumulate calcein from calcein-AM” value is recorded as “lost their normal ability to accumulate calcein” and the “ability of plasmodia to cause malaria in recipient mice” value is given as “lost their ability to cause malaria when injected into recipient mice”. Moreover, the “survival of recipients of infected spleen cells” value in the experiment with P. yoelii (donor 250 mg/kg ALA, cells exposed to photoactivating light 600-700 nm, 540 J/cm^2) is reported as “remained in good health for 90 days”. In addition, in the experiment with P. yoelii (donor 250 mg/kg ALA, cells kept in the dark), the “average survival of recipients of infected spleen cells” value was determined as 15 days. Further, the “accumulation of photosensitizing concentrations of PpIX” value in the experiment on P. yoelii (exposed to exogenous ALA, Example 10 list) is “ALA-induced photosensitization”. Besides, the “PpIX accumulation in primary and secondary lesions” value in the experiment on C. albicans lesions is given as “increased PpIX accumulation relative to the control mice”.
